System: oxidoreductase
Test: Michaelis constants (Dixon and Webb method, Lineweaver-Burke plots)
Assay type: biochemical, Microbacterium SP. (NCIB 12048)
Conditions: two substrate enzyme; calculated from primary Lineweaver-Burke plots
Procedure: The Michaelis constants (K^m) for NAD^+ and 1,2-ethanediol were calculated using the method described by Dixon, M and Webb, E.C. ("Enzymes", Longman Group Limited, 1964 pp. 84-86) for two substrate enzymes, based on data from primary plots constructed by the Lineweaver-Burke technique.

Question: For `OCCO` [Monoethylene Glycol, 1,2-ethanediol], which Km is on record?
Answer: ~480 µM

Question: Which Km does the source give for `NC(=O)c1ccc[n+]([C@@H]2O[C@H](COP(=O)([O-])OP(=O)(O)OC[C@H]3O[C@@H](n4cnc5c(N)ncnc54)[C@H](O)[C@@H]3O)[C@@H](O)[C@H]2O)c1` [NAD^+, nicotinamide adenenine dinucleotide] here?
Answer: ~330 µM
